According to PubChem BioAssay (NCI):
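96-well plates; 48 h exposure; 5 concentrations. Endpoints by linear interpolation between flanking doses. Not reached: highest tested concentration assigned. TGI: total growth inhibition.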

Columns and labels:
Test in all cases: inhibition of tumour cell growth, NCI panel, 48 h
786-0 renal = test system: 786-0 renal
A498 renal = test system: A498 renal
A549 NSCLC = test system: A549 NSCLC
ACHN renal = test system: ACHN renal
BT-549 breast = test system: BT-549 breast
CAKI-1 renal = test system: CAKI-1 renal
CCRF-CEM leukemia = test system: CCRF-CEM leukemia
COLO 205 colon = test system: COLO 205 colon
DU-145 prostate = test system: DU-145 prostate
EKVX NSCLC = test system: EKVX NSCLC
HCC-2998 colon = test system: HCC-2998 colon
HCT-116 colon = test system: HCT-116 colon
HCT-15 colon = test system: HCT-15 colon
HL-60(TB) leukemia = test system: HL-60(TB) leukemia
HOP-92 NSCLC = test system: HOP-92 NSCLC
HS 578T breast = test system: HS 578T breast
HT29 colon = test system: HT29 colon
IGROV1 ovarian = test system: IGROV1 ovarian
K-562 leukemia = test system: K-562 leukemia
KM12 colon = test system: KM12 colon
LOX IMVI melanoma = test system: LOX IMVI melanoma
M14 melanoma = test system: M14 melanoma
MALME-3M melanoma = test system: MALME-3M melanoma
MCF7 breast = test system: MCF7 breast
MDA-MB-231 breast = test system: MDA-MB-231 breast
MDA-MB-435 = test system: MDA-MB-435
MDA-N = test system: MDA-N
MOLT-4 leukemia = test system: MOLT-4 leukemia
NCI-H226 lung = test system: NCI-H226 lung
NCI-H23 lung = test system: NCI-H23 lung
NCI-H460 lung = test system: NCI-H460 lung
NCI-H522 lung = test system: NCI-H522 lung
NCI/ADR-RES ovarian = test system: NCI/ADR-RES ovarian
OVCAR-4 ovarian = test system: OVCAR-4 ovarian
OVCAR-5 ovarian = test system: OVCAR-5 ovarian
OVCAR-8 ovarian = test system: OVCAR-8 ovarian
PC-3 prostate = test system: PC-3 prostate
RXF 393 renal = test system: RXF 393 renal
SF-268 CNS = test system: SF-268 CNS
SF-295 CNS = test system: SF-295 CNS
SF-539 CNS = test system: SF-539 CNS
SK-MEL-2 melanoma = test system: SK-MEL-2 melanoma
SK-MEL-28 melanoma = test system: SK-MEL-28 melanoma
SK-MEL-5 melanoma = test system: SK-MEL-5 melanoma
SK-OV-3 ovarian = test system: SK-OV-3 ovarian
SN12C renal = test system: SN12C renal
SNB-19 CNS = test system: SNB-19 CNS
SNB-75 CNS = test system: SNB-75 CNS
SR leukemia = test system: SR leukemia
SW-620 colon = test system: SW-620 colon
T-47D breast = test system: T-47D breast
TK-10 renal = test system: TK-10 renal
U251 CNS = test system: U251 CNS
UACC-257 melanoma = test system: UACC-257 melanoma
UACC-62 melanoma = test system: UACC-62 melanoma
UO-31 renal = test system: UO-31 renal
DMS 273 small cell lung = test system: DMS 273 small cell lung
HOP-62 NSCLC = test system: HOP-62 NSCLC
KM20L2 colon = test system: KM20L2 colon
LXFL 529 NSCLC = test system: LXFL 529 NSCLC
M19-MEL melanoma = test system: M19-MEL melanoma
OVCAR-3 ovarian = test system: OVCAR-3 ovarian
RPMI-8226 leukemia = test system: RPMI-8226 leukemia
SNB-78 CNS = test system: SNB-78 CNS
DLD-1 colon = test system: DLD-1 colon
XF 498 CNS = test system: XF 498 CNS

## CC1=C(/C=C/Cl)CC(Cl)C(C)(Cl)C1 (stereo not drawn)
786-0 renal
  TGI: > 100 µM
A498 renal
  TGI: > 100 µM
A549 NSCLC
  TGI: > 100 µM
ACHN renal
  TGI: > 100 µM
BT-549 breast
  TGI: > 100 µM
CAKI-1 renal
  TGI: > 100 µM
CCRF-CEM leukemia
  TGI: 74.2 µM
COLO 205 colon
  TGI: > 100 µM
DU-145 prostate
  TGI: > 100 µM
EKVX NSCLC
  TGI: > 100 µM
HCC-2998 colon
  TGI: > 100 µM
HCT-116 colon
  TGI: > 100 µM
HCT-15 colon
  TGI: > 100 µM
HL-60(TB) leukemia
  TGI: 60.5 µM
HOP-92 NSCLC
  TGI: > 100 µM
HS 578T breast
  TGI: > 100 µM
HT29 colon
  TGI: > 100 µM
IGROV1 ovarian
  TGI: > 100 µM
K-562 leukemia
  TGI: > 100 µM
KM12 colon
  TGI: > 100 µM
LOX IMVI melanoma
  TGI: > 100 µM
M14 melanoma
  TGI: > 100 µM
MALME-3M melanoma
  TGI: > 100 µM
MCF7 breast
  TGI: > 100 µM
MDA-MB-231 breast
  TGI: > 100 µM
MDA-MB-435
  TGI: > 100 µM
MDA-N
  TGI: > 100 µM
MOLT-4 leukemia
  TGI: > 100 µM
NCI-H226 lung
  TGI: > 100 µM
NCI-H23 lung
  TGI: > 100 µM
NCI-H460 lung
  TGI: > 100 µM
NCI-H522 lung
  TGI: > 100 µM
NCI/ADR-RES ovarian
  TGI: > 100 µM
OVCAR-4 ovarian
  TGI: > 100 µM
OVCAR-5 ovarian
  TGI: > 100 µM
OVCAR-8 ovarian
  TGI: > 100 µM
PC-3 prostate
  TGI: > 100 µM
RXF 393 renal
  TGI: 71.3 µM
SF-268 CNS
  TGI: > 100 µM
SF-295 CNS
  TGI: > 100 µM
SF-539 CNS
  TGI: > 100 µM
SK-MEL-2 melanoma
  TGI: > 100 µM
SK-MEL-28 melanoma
  TGI: > 100 µM
SK-MEL-5 melanoma
  TGI: > 100 µM
SK-OV-3 ovarian
  TGI: > 100 µM
SN12C renal
  TGI: > 100 µM
SNB-19 CNS
  TGI: > 100 µM
SNB-75 CNS
  TGI: > 100 µM
SR leukemia
  TGI: > 100 µM
SW-620 colon
  TGI: > 100 µM
T-47D breast
  TGI: > 100 µM
TK-10 renal
  TGI: > 100 µM
U251 CNS
  TGI: > 100 µM
UACC-257 melanoma
  TGI: > 100 µM
UACC-62 melanoma
  TGI: > 100 µM
UO-31 renal
  TGI: > 100 µM

## CCCN(CCC)C(=O)c1c([N+](=O)[O-])cc(C(F)(F)F)cc1[N+](=O)[O-]
786-0 renal
  TGI: > 100 µM
A498 renal
  TGI: > 100 µM
A549 NSCLC
  TGI: > 100 µM
ACHN renal
  TGI: > 100 µM
CAKI-1 renal
  TGI: > 100 µM
CCRF-CEM leukemia
  TGI: > 100 µM
COLO 205 colon
  TGI: 39.1 µM
DMS 273 small cell lung
  TGI: > 100 µM
EKVX NSCLC
  TGI: > 100 µM
HCT-116 colon
  TGI: 87.4 µM
HCT-15 colon
  TGI: > 100 µM
HL-60(TB) leukemia
  TGI: 56.3 µM
HOP-62 NSCLC
  TGI: > 100 µM
HOP-92 NSCLC
  TGI: 93.3 µM
HT29 colon
  TGI: > 100 µM
IGROV1 ovarian
  TGI: > 100 µM
K-562 leukemia
  TGI: > 100 µM
KM12 colon
  TGI: > 100 µM
KM20L2 colon
  TGI: 53.7 µM
LOX IMVI melanoma
  TGI: > 100 µM
LXFL 529 NSCLC
  TGI: > 100 µM
M14 melanoma
  TGI: > 100 µM
M19-MEL melanoma
  TGI: 27 µM
MOLT-4 leukemia
  TGI: > 100 µM
NCI-H226 lung
  TGI: 65.3 µM
NCI-H23 lung
  TGI: 73.3 µM
NCI-H460 lung
  TGI: > 100 µM
NCI-H522 lung
  TGI: 60.5 µM
OVCAR-3 ovarian
  TGI: 34.8 µM
OVCAR-4 ovarian
  TGI: 32.9 µM
OVCAR-5 ovarian
  TGI: > 100 µM
OVCAR-8 ovarian
  TGI: > 100 µM
RPMI-8226 leukemia
  TGI: > 100 µM
RXF 393 renal
  TGI: 79.7 µM
SF-268 CNS
  TGI: > 100 µM
SF-295 CNS
  TGI: > 100 µM
SF-539 CNS
  TGI: > 100 µM
SK-MEL-2 melanoma
  TGI: > 100 µM
SK-MEL-28 melanoma
  TGI: > 100 µM
SK-OV-3 ovarian
  TGI: > 100 µM
SN12C renal
  TGI: > 100 µM
SNB-19 CNS
  TGI: > 100 µM
SNB-75 CNS
  TGI: > 100 µM
SNB-78 CNS
  TGI: > 100 µM
SR leukemia
  TGI: > 100 µM
SW-620 colon
  TGI: 84.3 µM
TK-10 renal
  TGI: > 100 µM
U251 CNS
  TGI: > 100 µM
UACC-62 melanoma
  TGI: 50.1 µM
UO-31 renal
  TGI: > 100 µM

## CC(=O)Oc1ccc2cc(-c3ccccc3OC(C)=O)c(=O)oc2c1
786-0 renal
  TGI: > 100 µM
A498 renal
  TGI: > 100 µM
A549 NSCLC
  TGI: > 100 µM
ACHN renal
  TGI: > 100 µM
BT-549 breast
  TGI: > 100 µM
CCRF-CEM leukemia
  TGI: 60.6 µM
COLO 205 colon
  TGI: > 100 µM
DU-145 prostate
  TGI: > 100 µM
EKVX NSCLC
  TGI: > 100 µM
HCC-2998 colon
  TGI: > 100 µM
HCT-116 colon
  TGI: > 100 µM
HCT-15 colon
  TGI: > 100 µM
HL-60(TB) leukemia
  TGI: 24.4 µM
HOP-62 NSCLC
  TGI: > 100 µM
HS 578T breast
  TGI: > 100 µM
HT29 colon
  TGI: > 100 µM
K-562 leukemia
  TGI: > 100 µM
KM12 colon
  TGI: > 100 µM
LOX IMVI melanoma
  TGI: > 100 µM
M14 melanoma
  TGI: > 100 µM
MALME-3M melanoma
  TGI: > 100 µM
MCF7 breast
  TGI: > 100 µM
MDA-MB-231 breast
  TGI: > 100 µM
MDA-MB-435
  TGI: > 100 µM
MDA-N
  TGI: > 100 µM
MOLT-4 leukemia
  TGI: > 100 µM
NCI-H226 lung
  TGI: 70.7 µM
NCI-H23 lung
  TGI: > 100 µM
NCI-H460 lung
  TGI: > 100 µM
NCI-H522 lung
  TGI: 17.9 µM
NCI/ADR-RES ovarian
  TGI: > 100 µM
OVCAR-3 ovarian
  TGI: > 100 µM
OVCAR-4 ovarian
  TGI: > 100 µM
OVCAR-5 ovarian
  TGI: > 100 µM
OVCAR-8 ovarian
  TGI: > 100 µM
PC-3 prostate
  TGI: > 100 µM
RPMI-8226 leukemia
  TGI: > 100 µM
SF-268 CNS
  TGI: > 100 µM
SF-295 CNS
  TGI: > 100 µM
SF-539 CNS
  TGI: > 100 µM
SK-MEL-2 melanoma
  TGI: > 100 µM
SK-MEL-28 melanoma
  TGI: > 100 µM
SN12C renal
  TGI: > 100 µM
SNB-19 CNS
  TGI: > 100 µM
SNB-75 CNS
  TGI: 34.4 µM
SR leukemia
  TGI: > 100 µM
SW-620 colon
  TGI: > 100 µM
T-47D breast
  TGI: 56.7 µM
U251 CNS
  TGI: > 100 µM
UACC-257 melanoma
  TGI: > 100 µM
UO-31 renal
  TGI: 28.4 µM

## COc1c(C)cc2c(c1O)C1C3[C@H]4SC[C@@]5(NCCC6=C5NC5C=CC=CC65)C(=O)OCC(c5c6c(c(C)c(OC(C)=O)c54)OCO6)N3[C@@H](O)C(C2)N1C (stereo partly drawn)
A549 NSCLC
  TGI: 1.72 µM
DLD-1 colon
  TGI: 1.92 µM
EKVX NSCLC
  TGI: 0.24 µM
HCC-2998 colon
  TGI: 0.0109 µM
HCT-116 colon
  TGI: > 100 µM
HOP-62 NSCLC
  TGI: < 0.01 µM
HT29 colon
  TGI: 10.3 µM
IGROV1 ovarian
  TGI: 1.85 µM
KM20L2 colon
  TGI: 1.45 µM
NCI-H226 lung
  TGI: 0.0859 µM
OVCAR-8 ovarian
  TGI: < 0.01 µM
RXF 393 renal
  TGI: < 0.01 µM
SK-MEL-2 melanoma
  TGI: < 0.01 µM
SN12C renal
  TGI: 1.3 µM
SNB-19 CNS
  TGI: 3.64 µM
SNB-75 CNS
  TGI: < 0.01 µM
SR leukemia
  TGI: > 100 µM
TK-10 renal
  TGI: 12.8 µM
UACC-257 melanoma
  TGI: < 0.01 µM
UO-31 renal
  TGI: 0.0112 µM
XF 498 CNS
  TGI: < 0.01 µM
